The text below walks through data of US12594258B2, “Inhibitors of MHC-I Nef downmodulation for treating HIV” (priority 2019, dated 2026).

Data set [1] deals with AP-1:Nef:MHC-I complex. In words: GST-tagged MHC-I cytoplasmic tail pull down assay. Type of data set: binding. The source says: (§1) The His6- and GST-tagged AP-1 core, mouse AP1M1 (157-423) (referred as μ1-CTD), human Arf1 (17-181)-Q71L, human MHC-I (338-365)-NL4-3 Nef, HIV-1 NL4-3 Nef constructs and protein purification were previously described. For GST pull down assay, codon-optimized human MHC-I (338-365) was subcloned into pGST parallel2 vector using BamHI/Xhol sites, fused an N-terminal GST tag and a TEV cleavage site. PCR encoding HIV-1 Nef or SlVsmm Nef fused with GFP was subcloned into LIC 2BT vector (Macrolab), expressed as a TEV-cleavable N-terminal His6 tag and C-terminal uncleavable GFP tag.
GST tagged MHC-I tail was expressed in BL21 (DE3) star cells by induction at 20° C. overnight. The purification was carried out using glutathione-Sepharose 4B resin, the elution was then subjected to a HiLoad 16/60 Superdex 75 column in the buffer of 20 mM Tris pH 8, 150 mM NaCl, 0.1 mM TCEP.

Data set [2] is described as follows: Mouse in vivo tolerability. More on the design: species or system mice. The method, then: FIG. 8A is a schematic representation of experiments for FIG. 8B-D. Five mice per group received injections of CMA every 2 days for 10 doses. Blood plasma and lymph nodes were harvested from mice sacrificed 2 hours after the final injection.
Mouse in vivo Assays. To further examine the tolerability of CMA, preliminary studies were performed in two groups of mice injected with different doses of CMA every other day for 18 days (FIG. 8A). […] In a separate experiment, plasma harvested from treated mice inhibited Nef in our in vitro assay (FIG. 8F). Taken together, these promising preliminary studies provide evidence that CMA is both efficacious and tolerable in vivo.

Data set [3] deals with ARF-1:AP-1:Nef:MHC-I complex. Briefly: Differential scanning fluorimetry (DSF) thermal stability assay. Particulars: 1-hour incubation, compared to solvent control. Type of data set: binding.
Text: as §1
Recombinant AP-1 core was mixed with Arf1-GTP and MHC-I-Nef at the molar ratio of 1:4:6, then incubated at 4° C. overnight. […]
DSF assays were performed using a Stratagene Mx3000P RT-PCR (Stratagene, La Jolla, CA) to monitor protein unfolding by the florescence increasing of SYPRO Orang (Invitrogen, Carlsbad, Calif.). […] The Fluorescent intensity was measured using the SYBR green filter over the temperature range of 25 to 90° C. in 1 degree/min increments. After subtracting fluorescence from DMSO control reaction without protein, the average fluorescent intensities were plotted as a function of temperature. […] The fluorescence intensity (before post-peak region) was fitted to Boltzmann equation to obtain melting temperature (Tm).
(In general: Differential scanning fluorimetry follows unfolding on heating by fluorescence.)

Take `C/C=C/[C@H]1O[C@@](O)([C@@H](C)[C@H](O)[C@H](C)[C@H]2OC(=O)/C(OC)=C/C(C)=C/[C@@H](C)[C@@H](O)[C@@H](CC)[C@@H](O)[C@H](C)C/C(C)=C/C=C/[C@@H]2OC)C[C@@H](O[C@H]2C[C@@H](O)[C@H](OC(N)=O)[C@@H](C)O2)[C@@H]1C` [CMA, concanamycin A]: the “pulldown of NL4-3 Nef, SIV Nef or AP-1 μ1-CTD by GST-tagged MHC-I cytoplasmic tail” value in data set [1] is recorded as “did not alter pulldown”. Further, in data set [2] (two doses, injected every other day for 18 days), the “toxicity based on behavior, fur and weight loss” value was “Neither dose showed toxicity”. Further, the body mass entry in data set [2] (weighed prior to each dose) is “no loss in body mass and no dose effect”. Besides, in data set [3], the “change in Tm of complex components” value is “No significant changes in Tm”.
